Results reported in the Kinase Knowledgebase extract (Sharma et al. 2016).

Each molecule was assayed against EGFR (UniProt P00533). Conditions: not given.
Sequence of EGFR (P00533 whole entry, looked up): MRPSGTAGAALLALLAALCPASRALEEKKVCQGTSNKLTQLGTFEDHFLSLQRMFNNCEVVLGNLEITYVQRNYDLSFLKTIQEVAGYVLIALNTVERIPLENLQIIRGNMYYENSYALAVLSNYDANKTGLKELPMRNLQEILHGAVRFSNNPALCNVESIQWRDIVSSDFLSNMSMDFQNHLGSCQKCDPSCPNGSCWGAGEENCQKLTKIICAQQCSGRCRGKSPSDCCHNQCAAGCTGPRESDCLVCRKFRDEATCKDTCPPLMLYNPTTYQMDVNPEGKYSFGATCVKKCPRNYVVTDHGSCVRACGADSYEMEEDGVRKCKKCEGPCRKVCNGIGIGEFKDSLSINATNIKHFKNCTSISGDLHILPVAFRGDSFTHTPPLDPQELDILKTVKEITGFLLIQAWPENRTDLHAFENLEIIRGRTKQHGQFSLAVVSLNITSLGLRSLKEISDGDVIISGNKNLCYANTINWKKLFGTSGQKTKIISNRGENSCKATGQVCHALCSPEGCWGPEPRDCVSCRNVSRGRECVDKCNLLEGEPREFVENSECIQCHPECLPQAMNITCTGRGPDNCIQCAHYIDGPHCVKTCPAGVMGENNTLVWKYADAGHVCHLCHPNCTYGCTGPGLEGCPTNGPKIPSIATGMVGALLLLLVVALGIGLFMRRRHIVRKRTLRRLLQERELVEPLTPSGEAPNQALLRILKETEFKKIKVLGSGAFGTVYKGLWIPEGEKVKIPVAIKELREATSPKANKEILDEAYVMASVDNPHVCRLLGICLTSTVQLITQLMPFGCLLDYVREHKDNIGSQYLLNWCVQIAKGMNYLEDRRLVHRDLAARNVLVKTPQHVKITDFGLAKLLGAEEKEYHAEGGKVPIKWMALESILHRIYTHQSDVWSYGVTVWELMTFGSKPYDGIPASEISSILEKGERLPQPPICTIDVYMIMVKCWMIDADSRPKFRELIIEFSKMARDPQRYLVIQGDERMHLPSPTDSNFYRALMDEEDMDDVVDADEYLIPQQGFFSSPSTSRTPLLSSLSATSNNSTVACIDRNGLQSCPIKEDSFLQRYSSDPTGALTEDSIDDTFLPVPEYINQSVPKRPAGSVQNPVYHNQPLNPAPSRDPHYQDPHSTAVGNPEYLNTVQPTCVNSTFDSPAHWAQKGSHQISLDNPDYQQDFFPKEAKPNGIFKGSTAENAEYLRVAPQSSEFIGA

Compound | IC50 [µM]
N#CC(C#N)=Cc1cc(O)c(O)c(O)c1 | 70
C=C(CN1CCN(C)CC1)C(=O)c1ccc(OCc2ccccc2)cc1 | 1.5

Each molecule was assayed against EGFR (murine) (UniProt P00533). Conditions: balb/mk cells.
Sequence of EGFR (murine) (P00533 whole entry, looked up): as above

Compound | IC50 [µM]
N#CC(C#N)=Cc1cc(O)c(O)c(O)c1 | 31.1
CN(C)CCCC(=O)c1ccc(OCc2ccccc2)cc1 | > 50
CC(CN(C)C)C(=O)c1ccc(OS(=O)(=O)c2ccc(C(=O)O)cc2)cc1 (stereo not given) | > 50
C=C(CN1CCN(C)CC1)C(=O)c1ccc(OCc2ccccc2)cc1 | 0.95
C=C(CN(C)C)C(=O)c1ccc(OS(=O)(=O)c2ccc(C(=O)O)cc2)cc1 | > 50

The molecules below were run against EGFR (human) (UniProt P00533). Conditions: a431.
Sequence of EGFR (human) (P00533 whole entry, looked up): as above

IC50 [µM] | Compound
> 100 | C=C(CN1CCCCC1)C(=O)c1ccc(OCc2ccccc2)cc1
> 100 | C=C(CN1CCN(C)CC1)C(=O)c1ccc(OCc2ccccc2)cc1
> 100 | CCOC(=O)C1CCN(CCC(=O)c2ccc(OCc3ccccc3)cc2)CC1
> 100 | CN(C)CCC(=O)c1ccc(OCc2ccccc2)cc1
> 100 | O=C(CCN1CCOCC1)c1ccc(OCc2ccccc2)cc1

More lines, now with the values behind:

Compound | IC50 [µM]
C=C(CN(C)C)C(=O)c1ccc(OCc2ccccc2)c(O)c1 | > 100
C=C(CN(C)C)C(=O)c1ccccc1 | > 100

These molecules were tested against EGFR (human) (UniProt P00533). Conditions: a431, concentration not given here.

Compound | inhibition [%]
C=C(CN1CCOCC1)C(=O)c1ccc(OCc2ccccc2)cc1 | 100
